Reference: the CheMixHub drug solubility set

Assay: xn = mol fraction of the nth substance listed, in the solute-free solvent

CN1CCN(C(=O)OC2c3nccnc3C(=O)N2c2ccc(Cl)cn2)CC1 (stereo unspecified) + CC#N + O
solubility (g/100 g solution)
Conditions	x2 = 0.3	x2 = 0.4	x2 = 0.5	x2 = 0.6	x2 = 0.7	x2 = 0.8	x2 = 0.9
288.15 K	0.593	1.13	2.08	2.78	3.27	3.38	2.87
298.15 K	0.785	1.72	2.61	3.38	4.09	4.14	3.55
308.15 K	0.997	2.11	3.4	4.41	5.3	5.38	4.63
318.15 K	1.26	2.67	4.26	5.76	6.74	7.02	6.08
328.15 K	1.77	3.23	5.56	7.47	8.64	8.93	8.18

COC(=O)C1=C(C)NC(C)=C(C(=O)OCC(C)C)C1c1ccccc1[N+](=O)[O-] (stereo unspecified) + CC#N + O
solubility (g/100 g solution)
Conditions	278.15 K	283.15 K	288.15 K	293.15 K	298.15 K	303.15 K	308.15 K	313.15 K	318.15 K
x2 = 0.04651	0.165	0.218	0.288	0.377	0.488	0.61	0.767	0.973	1.21
x2 = 0.0989	0.678	0.855	1.1	1.36	1.7	2.08	2.53	3.12	3.73
x2 = 0.1583	1.3	1.62	2.02	2.51	3.07	3.73	4.57	5.46	6.5
x2 = 0.2264	2.08	2.58	3.1	3.86	4.65	5.62	6.61	7.85	9.2
x2 = 0.3051	2.84	3.54	4.32	5.15	6.3	7.5	8.79	10.4	12.1
x2 = 0.397	3.75	4.65	5.65	6.7	8.1	9.55	11.2	13.1	15.2
x2 = 0.506	4.72	5.77	6.86	8.3	9.96	11.8	13.7	15.7	18
x2 = 0.6372	5.69	6.77	8.36	9.95	11.7	13.6	15.7	18.2	20.7
x2 = 0.798	6.56	7.83	9.45	11.2	13.1	15.2	17.6	20.2	22.9

Cc1nc(CCl)nc2ccccc12 + CC(C)=O + CCCCCC
solubility (g/100 g solution)
Conditions	x2 = 0.144	x2 = 0.266	x2 = 0.403	x2 = 0.556	x2 = 0.729
281.15 K	5.18	8.5	12.8	17.2	22.3
286.15 K	6.57	10.8	15.5	21.2	27.1
291.15 K	8.19	13.3	19.2	25.8	32.3
296.15 K	10.3	16.2	22.9	30.4	39.2
301.15 K	12.7	19.9	28.3	36.2	44.9
306.15 K	15.6	23.9	33.3	42.4	51.9
311.15 K	18.9	28.3	38.4	48.4	58.8
316.15 K	22.5	33.1	43.7	54.6	65
321.15 K	26.6	37.2	49	60.7	71
326.15 K	30.9	42.9	54.4	65.4	75.5
331.15 K	34.9	47.5	59	70.3	79.5

CN1CCN(C(=O)OC2c3nccnc3C(=O)N2c2ccc(Cl)cn2)CC1 (stereo unspecified) + CC(C)=O + O
solubility (g/100 g solution)
Conditions	x2 = 0.3	x2 = 0.4	x2 = 0.5	x2 = 0.6	x2 = 0.7	x2 = 0.8	x2 = 0.9
288.15 K	0.188	0.322	0.515	0.825	1.17	1.47	1.48
298.15 K	0.259	0.425	0.644	1.04	1.52	1.9	1.94
308.15 K	0.354	0.615	1.04	1.46	1.99	2.44	2.5
318.15 K	0.545	0.801	1.35	1.88	2.53	3.29	3.5
328.15 K	0.752	1.18	1.75	2.51	3.5	4.63	4.6

O=[N+]([O-])c1cc[nH]n1 + CC(C)=O + O
solubility (g/100 g solution)
Conditions	283.15 K	288.15 K	293.15 K	298.15 K	303.15 K	308.15 K	313.15 K	318.15 K	323.15 K
x2 = 0.03333	0.251	0.321	0.373	0.471	0.552	0.72	0.876	1.07	1.32
x2 = 0.07199	0.297	0.351	0.41	0.49	0.576	0.71	0.865	1.05	1.29
x2 = 0.1174	0.313	0.362	0.422	0.501	0.594	0.708	0.855	1.05	1.29
x2 = 0.1714	0.322	0.371	0.43	0.507	0.597	0.705	0.853	1.05	1.24
x2 = 0.2368	0.324	0.369	0.426	0.491	0.573	0.683	0.813	0.984	1.17
x2 = 0.3176	0.319	0.37	0.422	0.487	0.564	0.662	0.79	0.932	1.11
x2 = 0.42	0.324	0.366	0.414	0.476	0.543	0.637	0.749	0.871	0.999
x2 = 0.5538	0.306	0.354	0.398	0.457	0.527	0.614	0.722	0.873	1.02
x2 = 0.7363	0.299	0.349	0.397	0.461	0.515	0.576	0.678	0.794	0.916

O=c1ccc2ccccc2o1 + CC(C)=O + O
solubility (g/100 g solution)
Conditions	x2 = 0.1	x2 = 0.2	x2 = 0.3	x2 = 0.4	x2 = 0.5	x2 = 0.6	x2 = 0.7	x2 = 0.8	x2 = 0.9
268.15 K	0.474	2.21	4.51	9.81	13.8	17.1	19.9	21.9	23.1
273.15 K	0.611	2.81	6.5	11.9	16.8	20.6	23.7	25.8	26.9
278.15 K	0.798	3.96	8.98	15.3	20.9	25	27.8	30.6	31.5
283.15 K	1.05	5.18	12.2	19.5	25.5	30.2	33.1	35.3	36.2
288.15 K	1.38	6.75	16.8	24.6	31.4	36	39.3	41.2	41.8
293.15 K	1.8	9.24	22.3	31.3	38.5	42.9	46.2	47.7	48
298.15 K	2.27	12.3	29.6	38.4	45.7	49.6	52.6	53.6	53.9
303.15 K	2.96	16.8	37.4	47	53.9	57.2	59.4	59.8	59.8

CC(=O)Nc1ccc(OC(=O)c2ccccc2OC(C)=O)cc1 + CC(C)O + O
solubility (g/100 g solution)
Conditions	278.15 K	283.15 K	288.15 K	293.15 K	298.15 K	303.15 K	308.15 K	313.15 K	318.15 K
x2 = 0.03225	0.00278	0.00407	0.0057	0.00819	0.0115	0.0161	0.0217	0.0296	0.0399
x2 = 0.06974	0.0072	0.0102	0.0142	0.0195	0.0268	0.0367	0.0481	0.0636	0.0846
x2 = 0.1139	0.015	0.0212	0.0289	0.0402	0.0537	0.0718	0.0958	0.126	0.162
x2 = 0.1666	0.0246	0.0342	0.0466	0.0633	0.0855	0.114	0.148	0.195	0.252
x2 = 0.2307	0.0358	0.0489	0.0678	0.0921	0.124	0.165	0.217	0.285	0.371
x2 = 0.3103	0.0475	0.0662	0.0897	0.123	0.163	0.215	0.29	0.374	0.488
x2 = 0.4117	0.0571	0.0787	0.109	0.148	0.197	0.26	0.341	0.445	0.574
x2 = 0.5454	0.0663	0.0911	0.125	0.167	0.221	0.295	0.381	0.494	0.642
x2 = 0.7297	0.0717	0.097	0.131	0.177	0.239	0.315	0.412	0.525	0.68

CS(=O)(=O)c1ccc(C(O)C(CF)NC(=O)C(Cl)Cl)cc1 (stereo unspecified) + CC(C)O + O
solubility (g/100 g solution)
Conditions	278.15 K	283.15 K	288.15 K	293.15 K	298.15 K	303.15 K	308.15 K	313.15 K	318.15 K
x2 = 0.03225	0.082	0.109	0.146	0.189	0.246	0.32	0.403	0.515	0.641
x2 = 0.06974	0.117	0.159	0.216	0.278	0.362	0.488	0.613	0.798	1
x2 = 0.1139	0.16	0.215	0.286	0.379	0.504	0.64	0.828	1.06	1.35
x2 = 0.1666	0.199	0.266	0.353	0.472	0.608	0.787	1.01	1.29	1.64
x2 = 0.2307	0.237	0.317	0.422	0.56	0.717	0.931	1.19	1.5	1.88
x2 = 0.3103	0.276	0.367	0.481	0.629	0.81	1.05	1.34	1.67	2.1
x2 = 0.4117	0.296	0.398	0.516	0.669	0.873	1.14	1.42	1.78	2.24
x2 = 0.5454	0.308	0.411	0.536	0.702	0.9	1.16	1.47	1.89	2.32
x2 = 0.7297	0.309	0.407	0.537	0.697	0.911	1.14	1.47	1.84	2.29
